Measurements from ChEMBL document CHEMBL5226342, “Novel Reversible-Binding PET Ligands for Imaging Monoacylglycerol Lipase Based on the Piperazinyl Azetidine Scaffold” (J Med Chem, 2021).
Active and inactive are the calls of the source. No cut-off for these calls is given here.

Experiments:
[1] = target: T1, Neutral cholesterol ester hydrolase 1 (Mus musculus) (UniProt Q8BLF1); experiment: Displacement of FP-rhodamine from KIAA1363 in mouse brain membrane fraction preincubated for 30 mins followed by FP-rhodhamine addition for 10 mins by Activity-Based Protein Profiling analysis; assay type: cell membranes; details: time 40.0 min
T1 sequence (whole entry): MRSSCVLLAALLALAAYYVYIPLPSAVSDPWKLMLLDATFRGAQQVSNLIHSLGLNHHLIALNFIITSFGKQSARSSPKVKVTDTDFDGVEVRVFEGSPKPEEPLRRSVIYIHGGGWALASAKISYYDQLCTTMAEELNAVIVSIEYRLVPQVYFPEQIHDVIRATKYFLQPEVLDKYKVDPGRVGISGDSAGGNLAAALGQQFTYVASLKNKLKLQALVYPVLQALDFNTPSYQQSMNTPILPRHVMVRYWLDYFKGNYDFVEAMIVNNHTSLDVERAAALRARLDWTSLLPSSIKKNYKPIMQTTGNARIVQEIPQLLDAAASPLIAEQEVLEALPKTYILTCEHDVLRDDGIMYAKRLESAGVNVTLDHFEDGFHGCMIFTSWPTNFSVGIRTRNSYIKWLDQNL

[2] = target: T2, Lysophosphatidylserine lipase ABHD12 (Mus musculus) (UniProt Q99LR1); experiment: Displacement of FP-rhodamine from ABHD12 in mouse brain membrane fraction preincubated for 30 mins followed by FP-rhodhamine addition for 10 mins by Activity-Based Protein Profiling analysis; assay type: cell membranes; details: time 40.0 min
T2 sequence (whole entry): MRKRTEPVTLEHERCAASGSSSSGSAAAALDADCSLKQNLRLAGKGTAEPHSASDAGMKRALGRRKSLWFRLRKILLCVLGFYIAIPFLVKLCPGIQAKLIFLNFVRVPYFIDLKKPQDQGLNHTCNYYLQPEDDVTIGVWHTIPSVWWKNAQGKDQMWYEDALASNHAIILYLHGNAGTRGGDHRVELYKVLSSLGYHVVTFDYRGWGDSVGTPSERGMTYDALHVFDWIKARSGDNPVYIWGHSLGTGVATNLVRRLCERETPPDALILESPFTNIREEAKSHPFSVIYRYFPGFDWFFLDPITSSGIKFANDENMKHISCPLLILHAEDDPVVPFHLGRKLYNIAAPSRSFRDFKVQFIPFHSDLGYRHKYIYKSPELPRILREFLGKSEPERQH

[3] = target: T3, Fatty-acid amide hydrolase 1 (Mus musculus) (UniProt O08914); experiment: Displacement of FP-rhodamine from FAAH in mouse brain membrane fraction preincubated for 30 mins followed by FP-rhodhamine addition for 10 mins by Activity-Based Protein Profiling analysis; assay type: cell membranes; details: time 40.0 min
T3 sequence (whole entry): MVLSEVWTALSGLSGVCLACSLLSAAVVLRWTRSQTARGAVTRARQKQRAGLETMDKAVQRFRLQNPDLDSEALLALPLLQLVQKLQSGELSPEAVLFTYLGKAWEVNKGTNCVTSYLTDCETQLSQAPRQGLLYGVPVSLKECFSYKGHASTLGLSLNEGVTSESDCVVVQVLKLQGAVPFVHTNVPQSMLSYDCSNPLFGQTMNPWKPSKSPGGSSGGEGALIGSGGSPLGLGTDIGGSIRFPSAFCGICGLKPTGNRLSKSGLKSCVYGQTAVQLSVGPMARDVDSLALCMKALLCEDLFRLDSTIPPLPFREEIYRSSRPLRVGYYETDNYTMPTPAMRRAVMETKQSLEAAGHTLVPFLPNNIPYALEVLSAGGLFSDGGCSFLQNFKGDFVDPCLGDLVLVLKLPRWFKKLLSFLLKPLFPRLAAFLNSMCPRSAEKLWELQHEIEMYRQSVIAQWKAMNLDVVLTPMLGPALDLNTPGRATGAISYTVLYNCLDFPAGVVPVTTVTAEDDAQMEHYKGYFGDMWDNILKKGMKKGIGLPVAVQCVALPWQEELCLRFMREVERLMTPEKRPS

[4] = target: T4, Monoacylglycerol lipase ABHD6 (Mus musculus) (UniProt Q8R2Y0); experiment: Displacement of FP-rhodamine from ABHD6 in mouse brain membrane fraction preincubated for 30 mins followed by FP-rhodhamine addition for 10 mins by Activity-Based Protein Profiling analysis; assay type: cell membranes; details: time 40.0 min
T4 sequence (whole entry): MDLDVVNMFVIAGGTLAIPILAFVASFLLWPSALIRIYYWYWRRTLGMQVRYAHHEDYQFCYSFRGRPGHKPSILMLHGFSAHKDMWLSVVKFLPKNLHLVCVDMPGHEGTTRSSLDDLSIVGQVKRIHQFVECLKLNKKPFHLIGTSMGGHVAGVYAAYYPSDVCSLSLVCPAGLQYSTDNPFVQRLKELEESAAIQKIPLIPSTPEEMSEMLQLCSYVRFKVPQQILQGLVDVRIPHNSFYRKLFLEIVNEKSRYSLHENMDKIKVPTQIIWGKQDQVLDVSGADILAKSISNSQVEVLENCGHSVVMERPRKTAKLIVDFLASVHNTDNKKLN

[5] = target: CaV1.2 (voltage-dependent L-type calcium channel subunit alpha-1C) (Homo sapiens, UniProt Q13936); experiment: Inhibition of human CaV1.2 at 10 uM
hERG (KCNH2) = hERG (KCNH2) (Homo sapiens, UniProt Q12809); experiment: Inhibition of human ERG at 10 uM; assay type: toxicity
[6] = Lipophilicity, logD of the compound by shake flask method; assay type: physicochemical; details: octanol/water
[7] = target: T5, Monoglyceride lipase (Rattus norvegicus) (UniProt Q8R431); experiment: Binding affinity to MAGL in rat hippocampus incubated for 1 hr in presence of MAGL inhibitor, (1-(4-fluorophenyl)-1H-indol-5-yl)(3-(4-(pyrimidin-2-yl)piperazin-1-yl)azetidin-1-yl)methanone by autoradiography; assay type: tissue-based; details: tested as the 18F-labelled form
T5 sequence (whole entry): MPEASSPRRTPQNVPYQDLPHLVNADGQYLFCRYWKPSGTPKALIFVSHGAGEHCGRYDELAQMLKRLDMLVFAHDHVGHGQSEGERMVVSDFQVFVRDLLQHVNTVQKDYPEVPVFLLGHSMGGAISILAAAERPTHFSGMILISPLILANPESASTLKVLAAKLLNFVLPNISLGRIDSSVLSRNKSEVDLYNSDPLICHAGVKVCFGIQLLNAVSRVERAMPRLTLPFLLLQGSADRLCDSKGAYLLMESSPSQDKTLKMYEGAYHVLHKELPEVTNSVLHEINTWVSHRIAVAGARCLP

[8] = target: T5, Monoglyceride lipase (Rattus norvegicus); experiment: Binding affinity to MAGL in rat cortex incubated for 1 hr in presence of MAGL inhibitor, (1-(4-fluorophenyl)-1H-indol-5-yl)(3-(4-(pyrimidin-2-yl)piperazin-1-yl)azetidin-1-yl)methanone by autoradiography; assay type: tissue-based; details: tested as the 18F-labelled form
[9] = target: T5, Monoglyceride lipase (Rattus norvegicus); experiment: Binding affinity to MAGL in rat thalamus incubated for 1 hr in presence of MAGL inhibitor, (1-(4-fluorophenyl)-1H-indol-5-yl)(3-(4-(pyrimidin-2-yl)piperazin-1-yl)azetidin-1-yl)methanone by autoradiography; assay type: tissue-based; details: tested as the 18F-labelled form
[10] = target: T5, Monoglyceride lipase (Rattus norvegicus); experiment: Binding affinity to MAGL in rat striatum incubated for 1 hr in presence of MAGL inhibitor, (1-(4-fluorophenyl)-1H-indol-5-yl)(3-(4-(pyrimidin-2-yl)piperazin-1-yl)azetidin-1-yl)methanone by autoradiography; assay type: tissue-based; details: tested as the 18F-labelled form
[11] = target: T5, Monoglyceride lipase (Rattus norvegicus); experiment: Binding affinity to MAGL in rat cerebellum incubated for 1 hr in presence of MAGL inhibitor, (1-(4-fluorophenyl)-1H-indol-5-yl)(3-(4-(pyrimidin-2-yl)piperazin-1-yl)azetidin-1-yl)methanone by autoradiography; assay type: tissue-based; details: tested as the 18F-labelled form
[12] = target: T6, Monoglyceride lipase (Mus musculus) (UniProt O35678); details: Brain, Membrane, dose 50.0 nM, time 35-210 min
T6 sequence (whole entry): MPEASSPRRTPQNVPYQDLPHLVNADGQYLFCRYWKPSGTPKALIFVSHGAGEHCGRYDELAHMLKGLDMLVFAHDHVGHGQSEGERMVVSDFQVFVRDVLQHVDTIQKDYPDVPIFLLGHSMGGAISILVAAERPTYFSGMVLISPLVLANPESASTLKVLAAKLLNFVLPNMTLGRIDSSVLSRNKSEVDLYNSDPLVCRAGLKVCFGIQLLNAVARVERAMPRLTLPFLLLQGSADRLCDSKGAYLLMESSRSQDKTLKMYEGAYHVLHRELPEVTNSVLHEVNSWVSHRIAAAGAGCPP

[13] = target: T6, Monoglyceride lipase (Mus musculus); experiment: Irreversible inhibition of MAGL in mouse brain membrane fraction assessed as enzyme recovery by measuring FP-rhodamine reactivity at 50 nM preincubated for 30 mins followed by FP-rhodamine challenge for 5 to 180 mins by Activity-Based Protein Profiling analysis; assay type: cell membranes; details: time 35-210 min

Chain of hERG (KCNH2) (Q12809 whole entry): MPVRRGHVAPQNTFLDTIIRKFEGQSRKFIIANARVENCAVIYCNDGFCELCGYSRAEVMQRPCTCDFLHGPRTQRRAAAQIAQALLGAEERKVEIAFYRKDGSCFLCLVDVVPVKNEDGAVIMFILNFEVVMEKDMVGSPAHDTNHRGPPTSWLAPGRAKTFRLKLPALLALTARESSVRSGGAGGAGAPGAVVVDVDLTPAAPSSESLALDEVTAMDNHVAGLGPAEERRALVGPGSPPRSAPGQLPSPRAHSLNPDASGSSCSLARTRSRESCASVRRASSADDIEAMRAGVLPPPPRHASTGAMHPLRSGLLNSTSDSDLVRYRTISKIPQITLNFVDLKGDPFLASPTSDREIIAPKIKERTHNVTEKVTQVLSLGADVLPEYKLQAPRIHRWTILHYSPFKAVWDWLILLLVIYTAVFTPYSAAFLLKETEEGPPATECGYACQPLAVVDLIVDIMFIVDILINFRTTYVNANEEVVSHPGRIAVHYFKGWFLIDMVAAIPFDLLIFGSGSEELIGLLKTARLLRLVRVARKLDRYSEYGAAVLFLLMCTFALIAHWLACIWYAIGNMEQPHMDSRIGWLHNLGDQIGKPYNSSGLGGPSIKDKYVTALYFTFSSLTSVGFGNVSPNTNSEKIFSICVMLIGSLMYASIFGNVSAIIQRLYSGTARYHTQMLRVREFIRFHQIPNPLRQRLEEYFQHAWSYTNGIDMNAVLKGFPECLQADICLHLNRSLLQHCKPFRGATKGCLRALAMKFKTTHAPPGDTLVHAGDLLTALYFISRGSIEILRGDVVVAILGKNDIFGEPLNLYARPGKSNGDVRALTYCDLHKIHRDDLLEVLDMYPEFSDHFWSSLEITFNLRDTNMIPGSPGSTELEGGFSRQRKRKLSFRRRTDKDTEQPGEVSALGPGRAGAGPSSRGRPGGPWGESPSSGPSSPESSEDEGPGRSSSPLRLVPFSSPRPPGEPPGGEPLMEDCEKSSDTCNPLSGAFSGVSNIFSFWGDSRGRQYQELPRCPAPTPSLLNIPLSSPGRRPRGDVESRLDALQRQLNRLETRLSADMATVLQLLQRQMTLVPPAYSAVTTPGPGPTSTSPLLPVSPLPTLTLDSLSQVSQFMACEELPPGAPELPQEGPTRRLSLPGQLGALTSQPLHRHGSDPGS
Chain of CaV1.2 (voltage-dependent L-type calcium channel subunit alpha-1C) (Q13936 whole entry): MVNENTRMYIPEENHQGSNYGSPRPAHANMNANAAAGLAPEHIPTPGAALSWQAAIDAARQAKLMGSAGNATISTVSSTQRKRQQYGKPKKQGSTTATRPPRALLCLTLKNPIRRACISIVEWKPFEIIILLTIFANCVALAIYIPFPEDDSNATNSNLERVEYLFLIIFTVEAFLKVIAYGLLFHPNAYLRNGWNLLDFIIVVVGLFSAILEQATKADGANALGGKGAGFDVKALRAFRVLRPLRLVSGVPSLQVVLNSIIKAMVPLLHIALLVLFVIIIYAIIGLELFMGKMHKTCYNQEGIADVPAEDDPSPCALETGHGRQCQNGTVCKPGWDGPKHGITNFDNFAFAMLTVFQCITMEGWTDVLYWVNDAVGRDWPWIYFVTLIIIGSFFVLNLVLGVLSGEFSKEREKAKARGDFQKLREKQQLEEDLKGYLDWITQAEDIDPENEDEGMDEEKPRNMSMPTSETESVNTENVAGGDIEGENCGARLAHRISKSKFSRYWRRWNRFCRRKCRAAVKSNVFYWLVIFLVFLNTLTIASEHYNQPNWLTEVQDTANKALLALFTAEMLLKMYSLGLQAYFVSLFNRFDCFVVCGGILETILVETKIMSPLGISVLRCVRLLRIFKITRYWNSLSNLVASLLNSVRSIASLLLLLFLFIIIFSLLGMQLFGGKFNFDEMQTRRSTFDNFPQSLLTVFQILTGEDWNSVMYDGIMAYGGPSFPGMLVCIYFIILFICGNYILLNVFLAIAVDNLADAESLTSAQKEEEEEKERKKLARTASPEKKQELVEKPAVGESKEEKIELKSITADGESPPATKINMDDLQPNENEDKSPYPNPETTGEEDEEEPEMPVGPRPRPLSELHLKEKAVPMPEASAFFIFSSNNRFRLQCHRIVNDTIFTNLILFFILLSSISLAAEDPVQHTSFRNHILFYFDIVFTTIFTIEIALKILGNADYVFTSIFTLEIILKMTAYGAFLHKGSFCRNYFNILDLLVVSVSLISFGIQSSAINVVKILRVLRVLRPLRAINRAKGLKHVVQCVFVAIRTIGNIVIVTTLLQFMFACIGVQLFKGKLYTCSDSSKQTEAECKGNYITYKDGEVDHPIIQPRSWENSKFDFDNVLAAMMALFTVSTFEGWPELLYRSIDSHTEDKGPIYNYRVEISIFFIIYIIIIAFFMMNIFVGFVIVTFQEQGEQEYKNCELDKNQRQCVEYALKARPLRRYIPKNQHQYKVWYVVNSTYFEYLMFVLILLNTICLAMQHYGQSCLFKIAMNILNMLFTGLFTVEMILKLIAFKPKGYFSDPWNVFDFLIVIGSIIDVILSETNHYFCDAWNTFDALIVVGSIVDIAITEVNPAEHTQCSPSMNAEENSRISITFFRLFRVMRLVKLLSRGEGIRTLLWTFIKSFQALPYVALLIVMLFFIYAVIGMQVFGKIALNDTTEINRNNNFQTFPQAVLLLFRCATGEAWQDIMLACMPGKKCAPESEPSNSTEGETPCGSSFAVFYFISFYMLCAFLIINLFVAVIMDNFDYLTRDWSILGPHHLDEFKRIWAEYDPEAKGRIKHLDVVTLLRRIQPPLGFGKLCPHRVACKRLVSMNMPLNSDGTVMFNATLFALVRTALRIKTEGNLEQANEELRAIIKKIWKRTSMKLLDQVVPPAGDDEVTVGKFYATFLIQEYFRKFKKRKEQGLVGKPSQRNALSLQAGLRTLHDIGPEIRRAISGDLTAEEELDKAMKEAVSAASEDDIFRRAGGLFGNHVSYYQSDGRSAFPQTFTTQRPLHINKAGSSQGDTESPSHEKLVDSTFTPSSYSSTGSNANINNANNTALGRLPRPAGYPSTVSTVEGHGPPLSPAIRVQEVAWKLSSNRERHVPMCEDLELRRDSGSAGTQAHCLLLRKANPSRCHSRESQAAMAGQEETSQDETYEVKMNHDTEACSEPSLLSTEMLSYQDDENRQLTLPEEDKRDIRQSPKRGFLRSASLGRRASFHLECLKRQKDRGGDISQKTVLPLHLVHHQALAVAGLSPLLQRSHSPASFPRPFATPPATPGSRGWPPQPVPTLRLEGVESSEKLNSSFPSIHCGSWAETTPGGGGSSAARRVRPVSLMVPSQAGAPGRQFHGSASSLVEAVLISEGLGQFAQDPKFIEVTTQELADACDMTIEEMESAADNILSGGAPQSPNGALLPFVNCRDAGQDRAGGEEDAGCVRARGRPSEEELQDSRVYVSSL

SMILES	inhibition [1]	inhibition [2]	inhibition [3]	inhibition [4]	inhibition at 10 µM [5] [%]	inhibition at 10 µM (hERG (KCNH2)) [%]	logD [6]	Activity [7]	Activity [8]	Activity [9]	Activity [10]	Activity [11]	inhibition [12]	inhibition [13]
O=C(c1ccc2c(ccn2-c2ccc(F)cc2)c1)N1CC(N2CCN(c3ncccn3)CC2)C1	inactive	inactive	inactive	inactive	< 50	< 50	3.68	inactive	inactive	inactive	inactive	inactive	Active	–
O=C(ON1C(=O)CCC1=O)N1CCN(C(c2ccc(Cl)cc2)c2ccc(Cl)cc2)CC1	–	–	–	–	–	–	–	–	–	–	–	–	–	Active
